Assay results taken from US12678419B2, “Compounds” (Sitryx Therapeutics Limited, priority 2020, dated 2026).
Several values for one entry are separate records, joined by “and”; a condition that tells them apart may be missing. Equal entries are not always repeated.

Columns and labels:
[1] = test system: human hepatocytes; assay: Hepatocyte stability assay, human; type: in vitro ADME; conditions: 10 μM compound
Source text: (§1) Defrosted cryo-preserved hepatocytes (viability >70%) were used to determine the metabolic stability of a compound via calculation of intrinsic clearance (Clint; a measure of the removal of a compound from the liver in the absence of blood flow and cell binding). Clearance data are particularly important for in vitro work as they can be used in combination with in vivo data to predict the half-life and oral bioavailability of a drug.
(§2) The metabolic stability in hepatocytes assay involves a time-dependent reaction using both positive and negative controls. The cells were pre-incubated at 37° C. and spiked with test compound (and positive control); samples were taken at pre-determined time intervals were analysed to monitor the change in concentration of the initial drug compound over 60 minutes. A buffer incubation reaction (with no hepatocytes present) acted as a negative control and two cocktail solutions, containing compounds with known high and low clearance values (verapamil/7-hydroxycoumarin and propranolol/diltiazem), acted as positive controls. • 1. The assay was run with a cell concentration of 0.5×10^6 cells/mL in Leibovitz buffer. • 2. All compounds and controls were run in duplicate. • 3. Compound concentration was 10 μM. • 4. All compounds and controls were incubated with both cells and buffer to show turnover was due to hepatic metabolism. • 5. All wells on the incubation plate had 326.7 μL of either cells or buffer added. • 6. Prior to assay, cell and buffer-only incubation plates were preincubated for 10 mins at 37° C. • 7. The assay was initiated by adding compounds, 3.3 μL of 1 mM in 10% DMSO-90% Buffer; final DMSO concentration was 0.1%. • 8. Samples were taken at regular timepoints (0, 5, 10, 20, 40, 60 min) until 60 mins. • 9. Sample volume was 40 μL and was added to 160 μL of crash solvent (acetonitrile with internal standard) and stored on ice. • 10. At the end of the assay, the crash plates were centrifuged at 3500 rpm for 20 mins at 4° C. • 11. 80 μL of clear supernatant was removed and mixed with 80 μL of deionised water before being analysed by LC-MS/MS.
(§3) Raw LC-MS/MS data was exported to, and analysed in, Microsoft Excel for determination of intrinsic clearance. The percentage remaining of a compound was monitored using the peak area of the initial concentration as 100%. Intrinsic clearance and half-life values were calculated using a graph of the natural log of percentage remaining versus the time of reaction in minutes. Half-life (min) and intrinsic clearance (Clint in μL min^−1 10^−6 cells) values were calculated using the gradient of the graph (the elimination rate constant, k) and Equations 1 and 2.

[2] = Hepatocyte stability assay, human; type: in vitro ADME; conditions: human, cryopreserved hepatocytes, 10 μM compound, read-out: T½
Source text: as §1, §2, §3

[3] = test system: IL-1β cytokine output from THP-1s; assay: THP-1 AlphaLISA IL-1β cytokine assay; type: cell-based; conditions: Homo sapiens, THP-1, differentiated THP-1 cells, LPS then nigericin; Table 1
Procedure: (§4) The cytokine inhibition profiles of compounds of formula (I) were determined in a differentiated THP-1 cell assay. All assays were performed in RPMI-1640 growth medium (Gibco), supplemented with 10% fetal bovine serum (FBS; Gibco), 1% penicillin-streptomycin and 1% sodium pyruvate unless specified otherwise. The IL-1β and IL-6 cytokine inhibition assays were each run in a background of differentiated THP-1 cells as described below. All reagents described were from Sigma-Aldrich unless specified otherwise. Compounds were prepared as 10 mM DMSO stocks.
(§5) THP-1 cells were expanded as a suspension up to 80% confluence in appropriate growth medium. Cells were harvested, suspended, and treated with an appropriate concentration of phorbol 12-myristate 13-acetate (PMA) over a 72 hr period (37° C./5% CO2).
(§6) Following 72 hrs of THP-1 cell incubation, cellular medium was removed and replaced with fresh growth media containing 1% of FBS. Working concentrations of compounds were prepared separately in 10% FBS treated growth medium and pre-incubated with the cells for 30 minutes (37° C./5% CO2). Following the 30 minute compound pre-incubation, THP-1s were treated with an appropriate concentration of LPS and the THP-1s were subsequently incubated for a 24 hr period (37° C./5% CO2). An appropriate final concentration of Nigericin was then dispensed into the THP-1 plates and incubated for 1 hour (37° C./5% CO2) before THP-1 supernatants were harvested and collected in separate polypropylene 96-well holding plates.
(§7) Reagents from each of the IL-1β and IL-6 commercial kits (Perkin Elmer) were prepared and run according to the manufacturer's instructions. Subsequently, fluorescence signal detection in a microplate reader was measured (EnVision® Multilabel Reader, Perkin Elmer).
(§8) Percentage inhibition was calculated per cytokine by normalising the sample data to the high and low controls used within each plate (+/− LPS respectively). Percentage inhibition was then plotted against compound concentration and the 50% inhibitory concentration (IC50) was determined from the resultant concentration-response curve.

[4] = test system: IL-6 cytokine output from THP-1s; assay: THP-1 AlphaLISA IL-6 cytokine assay; type: cell-based; conditions: LPS then nigericin, Table 1
Procedure: as §4, §5, §6, §7, §8

[5] = Hepatocyte stability assay, mouse; type: in vitro ADME; conditions: mouse, cryopreserved hepatocytes, 10 μM compound, read-out: T½
Source text: as §1, §2, §3

[6] = test system: mouse hepatocytes; assay: Hepatocyte stability assay, mouse; type: in vitro ADME; conditions: 10 μM compound
Source text: as §1, §2, §3

[7] = test system: NRF2 (nuclear factor erythroid 2-related factor 2); assay: NRF2 +/-GSH activation assay (DiscoverX PathHunter NRF2 translocation kit, U2OS cells); type: cell-based; conditions: for Emax (%) +GSH / Emax (%) −GSH: normalised to dimethyl fumarate high control
[8] = Homo sapiens, THP-1, differentiated THP-1 cells

Clint (μL min^−1 10^−6 cells) [1] [μL min^−1 10^−6 cells] | half-life at 10 μM [2] [min] | IC50 [3] [µM] | IC50 [4, 8] [µM] | half-life at 10 μM [5] [min] | Clint (μL min^−1 10^−6 cells) [6] [μL min^−1 10^−6 cells] | EC50 ([7]; +GSH) | EC50 ([7]; −GSH) | T½ [6] [min] | IC50 ([4]; differentiated THP-1 cells) [µM] | Structure (SMILES) | Emax (%) +GSH ([7]; +GSH) | Emax (%) −GSH ([7]; −GSH)
252 | 7 | 1.7 | 1.2 | < 3 | >460 | – | – | – | – | C=C(CC(=O)OC1CCc2c(Cl)cc(Cl)cc21)C(=O)O[C@H](CC(=O)O)C(F)(F)F (single isomer, unassigned; diastereomer a) [Example 22] | – | –
190 | 9 | 1.2 | 1.2 | < 3 | >460 | – | – | – | – | C=C(CC(=O)OC1CCc2c(Cl)cc(Cl)cc21)C(=O)O[C@@H](CC(=O)O)C(F)(F)F (single isomer, unassigned; diastereomer b) [Example 23] | – | –
13 | 116 | 4 | 4.3 | – | 51 | 11.4 µM | 9 µM | 37 | – | C=C(CC(=O)OC1CCc2c(Cl)cc(Cl)cc21)C(=O)OCC(=O)O (single isomer, unassigned; enantiomer 1) [Example 2, 2-((4-((4,6-dichloro-2,3-dihydro-1H-inden-1-yl)oxy)-2-methylene-4-oxobutanoyl)oxy)acetic acid (Enantiomer 1)] | 166% | 196%
18 | 81 | 6.6 | – | 7 | 225 | – | – | – | – | C=C(CC(=O)OC1CCc2cc(Cl)cc(Cl)c2C1)C(=O)OCC(=O)O (single isomer, unassigned; enantiomer 1) [Example 10, 2-((4-((6,8-dichloro-1,2,3,4-tetrahydronaphthalen-2-yl)oxy)-2-methylene-4-oxobutanoyl)oxy)acetic acid (Enantiomer 1)] | – | –
19 | 75 | 2.8 | – | 7 | 224 | 36.7 µM | 27.8 µM | – | – | C=C(CC(=O)OC1CCc2c(Cl)cc(Cl)cc21)C(=O)OCCC(=O)O (single isomer, unassigned; enantiomer 1) [Example 14, 3-((4-((4,6-dichloro-2,3-dihydro-1H-inden-1-yl)oxy)-2-methylene-4-oxobutanoyl)oxy)propanoic acid (Enantiomer 1)] | 118% | 193%
54 | 32 | 3.3 | 4.1 | – | 56 | 5.7 µM | 6 µM | 34 | – | C=C(CC(=O)OC1CCCc2c(Cl)cc(Cl)cc21)C(=O)OCC(=O)O (single isomer, unassigned; enantiomer 1) [Example 24, 2-((4-((5,7-dichloro-1,2,3,4-tetrahydronaphthalen-1-yl)oxy)-2-methylene-4-oxobutanoyl)oxy)acetic acid (Enantiomer 1)] | 84% | 148%
9 | 169 | 11.9 | 8.6 | 16 | 97 | 35.1 µM and 37.5 µM | 12.2 µM and 22.2 µM | – | – | C=C(CC(=O)OC1CCc2cc(C(F)(F)F)ccc21)C(=O)OCC(=O)O (single isomer, unassigned; enantiomer 1) [Example 27, 2-((2-methylene-4-oxo-4-((5-(trifluoromethyl)-2,3-dihydro-1H-inden-1-yl)oxy)butanoyl)oxy)acetic acid (Enantiomer 1)] | 139% and 136% | 157% and 201%
21 | 75 | 11.7 | – | – | 49 | 22.5 µM | 8 µM | 32 | 7.6 | C=C(CC(=O)OC1CCc2ccc(OC(F)(F)F)cc21)C(=O)OCC(=O)O (single isomer, unassigned; enantiomer 1) [Example 28, 2-((2-methylene-4-oxo-4-((6-(trifluoromethoxy)-2,3-dihydro-1H-inden-1-yl)oxy)butanoyl)oxy)acetic acid (Enantiomer 1)] | 139% | 160%
29 | 61 | 9.6 | 9.6 | 6 | 272 | 22.9 µM | 11.3 µM | – | – | C=C(CC(=O)OC1CCCc2cc(C(F)(F)F)ccc21)C(=O)OCC(=O)O (single isomer, unassigned; enantiomer 1) [Example 31, 2-((2-methylene-4-oxo-4-((6-(trifluoromethyl)-1,2,3,4-tetrahydronaphthalen-1-yl)oxy)butanoyl)oxy)acetic acid (Enantiomer 1)] | 137% | 141%
6 | 227 | 2.8 | – | 21 | 72 | 35.4 µM | 29.2 µM | – | – | C=C(CC(=O)OC1CCc2cc(C(F)(F)F)ccc21)C(=O)OCC(=O)O (centres unmarked) [Example 17, 2-((2-methylene-4-oxo-4-((5-(trifluoromethyl)-2,3-dihydro-1H-inden-1-yl)oxy)butanoyl)oxy)acetic acid] | 184% | 305%
– | – | 2.1 | – | 10 | 146 | 18.4 µM | 8.7 µM | – | – | C=C(CC(=O)OC1CCc2ccc(OC(F)(F)F)cc21)C(=O)OCC(=O)O (centres unmarked) [Example 18, 2-((2-methylene-4-oxo-4-((6-(trifluoromethoxy)-2,3-dihydro-1H-inden-1-yl)oxy)butanoyl)oxy)acetic acid] | 105% | 121%
